This note sets out measurements from ChEMBL document CHEMBL3813616, “Discovery of novel 7-azaindoles as PDK1 inhibitors” (Bioorg Med Chem Lett, 2016).

In assay [1] the target is T1, 3-phosphoinositide-dependent protein kinase 1 (Homo sapiens, UniProt O15530).
T1 sequence (O15530 whole entry): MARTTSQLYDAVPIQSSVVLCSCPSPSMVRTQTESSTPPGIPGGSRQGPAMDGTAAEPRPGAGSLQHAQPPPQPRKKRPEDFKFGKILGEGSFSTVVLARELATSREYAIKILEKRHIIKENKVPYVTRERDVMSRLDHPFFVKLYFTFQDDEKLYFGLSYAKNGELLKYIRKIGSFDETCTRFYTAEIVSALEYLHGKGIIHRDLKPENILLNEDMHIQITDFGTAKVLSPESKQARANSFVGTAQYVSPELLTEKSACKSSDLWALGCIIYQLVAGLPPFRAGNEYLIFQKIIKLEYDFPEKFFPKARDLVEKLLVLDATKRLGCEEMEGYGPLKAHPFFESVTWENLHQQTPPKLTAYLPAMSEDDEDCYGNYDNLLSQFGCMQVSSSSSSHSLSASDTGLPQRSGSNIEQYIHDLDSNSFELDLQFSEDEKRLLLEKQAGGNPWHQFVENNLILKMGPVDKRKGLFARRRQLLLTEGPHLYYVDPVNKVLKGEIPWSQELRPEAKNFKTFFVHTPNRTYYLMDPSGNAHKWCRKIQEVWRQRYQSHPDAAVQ
Nature of the assay: Inhibition of PDK1 in human PC3 cells assessed as reduction in AKT Thr308 phosphorylation after 45 mins. The assay is classed as cell-based, PC-3.

Assay [2] has as its target T2, Serine/threonine-protein kinase Sgk1 (Homo sapiens) (UniProt O00141).
T2 sequence (whole entry): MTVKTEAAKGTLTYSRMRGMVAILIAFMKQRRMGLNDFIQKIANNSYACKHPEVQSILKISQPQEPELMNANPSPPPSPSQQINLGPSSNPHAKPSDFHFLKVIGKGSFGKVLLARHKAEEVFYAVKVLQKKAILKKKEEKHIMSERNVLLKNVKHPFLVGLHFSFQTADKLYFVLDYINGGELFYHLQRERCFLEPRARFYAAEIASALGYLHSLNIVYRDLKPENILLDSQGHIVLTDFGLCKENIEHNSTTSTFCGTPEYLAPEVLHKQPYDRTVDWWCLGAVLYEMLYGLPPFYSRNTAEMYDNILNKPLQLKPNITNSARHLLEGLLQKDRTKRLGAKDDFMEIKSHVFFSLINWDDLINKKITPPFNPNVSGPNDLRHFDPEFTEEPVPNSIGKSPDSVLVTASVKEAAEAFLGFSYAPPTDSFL
Nature of the assay: Inhibition of human SGK assessed as enzyme activity at 1 uM using 33P ATP by radioactive filter binding assay. On the set-up: scale not given: the % may be the effect or the level left.

In assay [3] the target is T3, Serine/threonine-protein kinase Chk1 (Homo sapiens) (UniProt O14757).
T3 sequence (whole entry): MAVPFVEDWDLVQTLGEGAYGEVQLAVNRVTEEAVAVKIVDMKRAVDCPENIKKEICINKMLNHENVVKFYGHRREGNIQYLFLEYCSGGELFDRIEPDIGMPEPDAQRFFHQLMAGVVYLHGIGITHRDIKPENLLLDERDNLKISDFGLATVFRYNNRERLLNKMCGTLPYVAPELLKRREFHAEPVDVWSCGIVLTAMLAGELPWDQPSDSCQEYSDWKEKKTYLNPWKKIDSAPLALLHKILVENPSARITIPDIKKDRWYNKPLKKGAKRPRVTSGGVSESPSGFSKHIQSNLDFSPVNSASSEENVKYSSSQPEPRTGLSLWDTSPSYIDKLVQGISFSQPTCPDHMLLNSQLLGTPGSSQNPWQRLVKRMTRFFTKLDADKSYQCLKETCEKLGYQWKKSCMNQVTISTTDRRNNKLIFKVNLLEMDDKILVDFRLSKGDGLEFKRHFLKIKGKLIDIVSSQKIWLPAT
Nature of the assay: Inhibition of human CHK1 (1 to 476 residues) assessed as enzyme activity at 1 uM using 33P ATP by radioactive filter binding assay. On the set-up: scale not given: the % may be the effect or the level left.

Assay [4] addresses Proto-oncogene tyrosine-protein kinase Src (Homo sapiens) (UniProt P12931). Nature of the assay: Inhibition of human SRC (1 to 536 residues) assessed as enzyme activity at 1 uM using 33P ATP by radioactive filter binding assay. On the set-up: scale not given: the % may be the effect or the level left.
In assay [5] the target is Tyrosine-protein kinase CSK (Homo sapiens) (UniProt P41240). The assay can be described thus: Inhibition of human CSK (1 to 450 residues) assessed as enzyme activity at 1 uM using 33P ATP by radioactive filter binding assay. On the set-up: scale not given: the % may be the effect or the level left.
Assay [6] addresses T4, Serine/threonine-protein kinase 3 (Homo sapiens) (UniProt Q13188).
T4 sequence (whole entry): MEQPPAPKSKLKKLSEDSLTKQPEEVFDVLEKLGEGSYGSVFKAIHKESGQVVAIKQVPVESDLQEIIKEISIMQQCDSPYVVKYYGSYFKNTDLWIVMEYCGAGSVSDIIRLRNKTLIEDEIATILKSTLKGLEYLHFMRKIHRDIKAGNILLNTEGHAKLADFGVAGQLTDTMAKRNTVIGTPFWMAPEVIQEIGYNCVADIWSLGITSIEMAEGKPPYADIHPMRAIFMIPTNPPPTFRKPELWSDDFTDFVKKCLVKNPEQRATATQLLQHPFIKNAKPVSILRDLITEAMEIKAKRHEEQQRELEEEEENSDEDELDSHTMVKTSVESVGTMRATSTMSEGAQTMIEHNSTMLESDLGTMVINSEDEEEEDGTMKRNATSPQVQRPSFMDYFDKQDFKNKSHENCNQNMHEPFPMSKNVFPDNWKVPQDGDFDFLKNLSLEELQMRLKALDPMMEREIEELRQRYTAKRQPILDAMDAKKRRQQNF
Nature of the assay: Inhibition of human MST2 (2 to 491 residues) assessed as enzyme activity at 1 uM using 33P ATP by radioactive filter binding assay. On the set-up: scale not given: the % may be the effect or the level left.

Assay [7] deals with Casein kinase II (Homo sapiens) (UniProt P67870+P68400+P19784). Nature of the assay: Inhibition of human CK2 assessed as enzyme activity at 1 uM using 33P ATP by radioactive filter binding assay. The assay is classed as protein-complex assay. On the set-up: scale not given: the % may be the effect or the level left.
The target of assay [8] is cAMP-dependent protein kinase catalytic subunit alpha (Homo sapiens) (UniProt P17612). The assay can be described thus: Inhibition of human PKA alpha (2 to 351 residues) assessed as enzyme activity at 1 uM using 33P ATP by radioactive filter binding assay. On the set-up: scale not given: the % may be the effect or the level left.
Assay [9] addresses Ephrin type-A receptor 2 (Homo sapiens) (UniProt P29317). The assay can be described thus: Inhibition of human EPHA2 (591 to 976 residues) assessed as enzyme activity at 1 uM using 33P ATP by radioactive filter binding assay. On the set-up: scale not given: the % may be the effect or the level left.
Assay [10] has as its target Phosphatidylinositol 4,5-bisphosphate 3-kinase catalytic subunit gamma isoform (Homo sapiens, UniProt P48736). Nature of the assay: Inhibition of PI3K gamma (unknown origin).

Chain of Proto-oncogene tyrosine-protein kinase Src (Homo sapiens) (P12931 2-536 limits assumed): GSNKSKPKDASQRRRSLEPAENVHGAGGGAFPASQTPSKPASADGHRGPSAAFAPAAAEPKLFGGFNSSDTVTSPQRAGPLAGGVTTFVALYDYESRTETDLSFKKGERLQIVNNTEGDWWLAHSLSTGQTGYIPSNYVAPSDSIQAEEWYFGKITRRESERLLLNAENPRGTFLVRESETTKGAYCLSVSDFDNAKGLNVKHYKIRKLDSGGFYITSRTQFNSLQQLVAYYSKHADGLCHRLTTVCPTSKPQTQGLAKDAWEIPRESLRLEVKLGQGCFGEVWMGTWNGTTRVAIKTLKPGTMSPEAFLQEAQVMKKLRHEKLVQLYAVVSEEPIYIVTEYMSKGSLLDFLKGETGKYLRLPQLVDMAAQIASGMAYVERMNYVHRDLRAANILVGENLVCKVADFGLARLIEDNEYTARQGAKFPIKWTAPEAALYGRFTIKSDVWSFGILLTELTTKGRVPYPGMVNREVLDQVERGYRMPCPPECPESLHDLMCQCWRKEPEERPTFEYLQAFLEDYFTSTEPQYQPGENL
Chain of Ephrin type-A receptor 2 (Homo sapiens) (P29317 whole entry, the tested form may be a part, canonical isoform): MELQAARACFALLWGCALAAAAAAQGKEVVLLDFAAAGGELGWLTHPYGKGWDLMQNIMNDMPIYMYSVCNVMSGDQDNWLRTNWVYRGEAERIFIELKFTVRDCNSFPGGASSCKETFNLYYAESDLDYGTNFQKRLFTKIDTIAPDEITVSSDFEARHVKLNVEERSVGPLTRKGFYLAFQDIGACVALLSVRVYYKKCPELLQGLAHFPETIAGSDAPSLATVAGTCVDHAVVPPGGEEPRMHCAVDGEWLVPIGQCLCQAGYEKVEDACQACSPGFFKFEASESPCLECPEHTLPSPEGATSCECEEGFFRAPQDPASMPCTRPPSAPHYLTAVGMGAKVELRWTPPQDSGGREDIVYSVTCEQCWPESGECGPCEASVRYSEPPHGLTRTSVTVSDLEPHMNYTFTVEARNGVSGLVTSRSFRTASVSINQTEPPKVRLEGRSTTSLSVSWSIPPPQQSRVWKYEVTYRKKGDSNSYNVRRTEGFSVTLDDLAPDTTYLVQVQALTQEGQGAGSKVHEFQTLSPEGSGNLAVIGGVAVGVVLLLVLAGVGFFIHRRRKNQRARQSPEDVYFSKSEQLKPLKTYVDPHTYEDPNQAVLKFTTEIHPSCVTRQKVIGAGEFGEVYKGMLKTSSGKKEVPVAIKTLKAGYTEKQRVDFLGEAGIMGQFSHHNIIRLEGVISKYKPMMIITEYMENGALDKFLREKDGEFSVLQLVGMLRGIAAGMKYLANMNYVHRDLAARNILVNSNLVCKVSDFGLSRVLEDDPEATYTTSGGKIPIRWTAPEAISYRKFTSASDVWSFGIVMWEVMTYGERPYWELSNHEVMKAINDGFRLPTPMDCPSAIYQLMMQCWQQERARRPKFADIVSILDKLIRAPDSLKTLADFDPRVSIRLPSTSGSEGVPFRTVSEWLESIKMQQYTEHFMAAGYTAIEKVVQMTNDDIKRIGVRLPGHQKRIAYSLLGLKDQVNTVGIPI
Chain of Tyrosine-protein kinase CSK (Homo sapiens) (P41240 2-450 limits assumed): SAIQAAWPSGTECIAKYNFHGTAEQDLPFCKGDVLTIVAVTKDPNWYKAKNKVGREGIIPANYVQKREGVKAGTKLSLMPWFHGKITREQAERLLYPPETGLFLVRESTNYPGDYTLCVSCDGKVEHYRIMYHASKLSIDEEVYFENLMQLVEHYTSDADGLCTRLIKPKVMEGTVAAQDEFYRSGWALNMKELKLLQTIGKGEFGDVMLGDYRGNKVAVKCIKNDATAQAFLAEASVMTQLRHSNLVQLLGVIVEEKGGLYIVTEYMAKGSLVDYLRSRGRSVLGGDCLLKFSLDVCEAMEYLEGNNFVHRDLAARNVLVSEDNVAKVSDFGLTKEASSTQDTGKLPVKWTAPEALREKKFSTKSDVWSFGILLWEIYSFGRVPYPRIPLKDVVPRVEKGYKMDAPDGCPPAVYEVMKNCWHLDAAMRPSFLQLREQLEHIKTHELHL
Chain of Phosphatidylinositol 4,5-bisphosphate 3-kinase catalytic subunit gamma isoform (P48736 whole entry, canonical isoform): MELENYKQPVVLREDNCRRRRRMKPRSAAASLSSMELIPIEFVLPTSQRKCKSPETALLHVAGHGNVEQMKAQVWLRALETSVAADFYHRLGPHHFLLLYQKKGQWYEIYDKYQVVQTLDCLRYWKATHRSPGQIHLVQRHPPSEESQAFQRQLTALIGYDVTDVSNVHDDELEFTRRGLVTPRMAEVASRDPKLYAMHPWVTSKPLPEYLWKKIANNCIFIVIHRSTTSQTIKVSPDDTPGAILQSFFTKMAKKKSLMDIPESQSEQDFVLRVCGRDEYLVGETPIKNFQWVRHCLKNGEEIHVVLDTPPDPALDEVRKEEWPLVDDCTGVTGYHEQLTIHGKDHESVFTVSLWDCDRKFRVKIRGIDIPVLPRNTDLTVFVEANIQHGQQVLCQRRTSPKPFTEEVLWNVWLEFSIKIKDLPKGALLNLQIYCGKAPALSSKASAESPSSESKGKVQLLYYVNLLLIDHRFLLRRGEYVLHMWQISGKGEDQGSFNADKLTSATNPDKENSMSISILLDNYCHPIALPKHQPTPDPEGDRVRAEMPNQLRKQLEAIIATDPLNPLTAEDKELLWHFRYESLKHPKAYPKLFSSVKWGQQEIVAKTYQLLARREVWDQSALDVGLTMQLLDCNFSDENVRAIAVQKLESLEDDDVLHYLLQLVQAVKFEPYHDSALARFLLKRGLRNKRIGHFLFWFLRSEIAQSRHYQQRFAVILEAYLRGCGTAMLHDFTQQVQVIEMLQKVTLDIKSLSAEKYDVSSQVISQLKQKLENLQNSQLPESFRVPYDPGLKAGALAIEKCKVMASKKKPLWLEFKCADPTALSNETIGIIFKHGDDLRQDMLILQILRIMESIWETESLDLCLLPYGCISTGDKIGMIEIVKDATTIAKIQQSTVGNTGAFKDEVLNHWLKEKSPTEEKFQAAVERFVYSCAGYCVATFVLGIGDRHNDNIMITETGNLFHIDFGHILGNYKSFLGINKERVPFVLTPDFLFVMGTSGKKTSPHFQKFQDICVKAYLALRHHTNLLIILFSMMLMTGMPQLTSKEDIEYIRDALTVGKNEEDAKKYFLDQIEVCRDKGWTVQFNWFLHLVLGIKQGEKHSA

`CCCCc1cc(-c2c[nH]c3ncc(-c4cnn(C5CCNCC5)c4)cc23)nc(N)n1`: the IC50 – broadly, the midpoint of a concentration-inhibition curve – in assay [1] came out at 2.3 µM. The Activity in assay [2] was -78%; in [3], -79%; in assay [4], -68%; in assay [5], -24%; in assay [6], -86%; in [7] it was 0%. Also, the Activity in assay [8] was -42%; in assay [9] it was -53%.

As to `CCCCc1cc(-c2c[nH]c3ncccc23)nc(N)n1`, the IC50 in assay [10] and in [1] was greater than 10 µM in each case. Further, the Activity was -12% in assay [2]; -2% in assay [3]; 7% in assay [4]; -5% in assay [5]; -33% in [6]; 14% in assay [7]. Also, the Activity in [8] is -54%; in [9], 17%.

On to `CCc1cc(-c2c[nH]c3ncc(-c4cnn(C5CCNCC5)c4)cc23)nc(N)n1`, for which the 50% inhibitory concentration (IC50) in assay [10] was greater than 10 µM; in assay [1], 13 µM. Also, the Activity in assay [2] was -78%; in assay [3], -89%; in assay [4] it was -34%; in [5], 6%; in [6] it was -63%; in [7] it was -10%. The Activity in assay [8] is -38%; in [9], -16%.

Take `Nc1nccc(-c2c[nH]c3ncccc23)n1` [MERIOLIN 1]: the IC50 in [10] and in assay [1] was greater than 10 µM throughout. Also, the Activity was -42% in assay [2]; -6% in assay [3]; -11% in assay [4]; 0% in [5]; -20% in assay [6]; -22% in assay [7]. The Activity was -66% in [8] and 25% in [9].
